Here are results for 6 compounds from patent publication EP0618905B1, “IMIDAZOLYL-ALKYL-PIPERAZINE AND -DIAZEPINE DERIVATIVES AS HISTAMINE H3 AGONISTS/ANTAGONISTS” (SCHERING CORPORATION, priority 1991, dated 1993).

Experiment [1] deals with T1, H₃ receptors (Cavia porcellus, UniProt Q9JI35).
T1 construct: The source of the H₃ receptors in this experiment was guinea pig brain; from tissue; host or cells: guinea pig brain membranes
The experiment is described as follows: H3 Receptor Binding Assay. The following applies: guinea pig brain membranes; for Ki: 3 nM [³H]R-α-methylhistamine or [³H]-N-methylhistamine, 30° for 30 min; for H3 Binding (inhibition of the specific binding of radioactive ligand): final concentration 2 µg/mL with 0.1% DMSO, not serially diluted (70% or less inhibition). The procedure:
H₃ Receptor Binding Assay
The source of the H₃ receptors in this experiment was guinea pig brain. The animals used weighed 400-600 g. The tissue was homogenized using a Polytron in a solution of 50 mM Tris, pH 7.5. The final concentration of tissue in the homogenization buffer was 10% w/v. The homogenates were centrifuged at 1000 x g for 10 min. in order to remove clumps of tissue and debris. The resulting supernatants were then centrifuged at 50,000 x g for 20 min. in order to sediment the membranes, which were nest washed 3 times in homogenization buffer (50,000 x g for 20 min. each). The membranes were frozen and stored at -70°C until needed.
All compounds to be tested were dissolved in DMSO and then diluted into the binding buffer (50 mM Tris, pH 7.5) such that the final concentration was 2 µg/mL with 0.1% DMSO. Membranes were then added (400 µg of protein) to the reaction tubes. The reaction was started by the addition of 3 nM [³H]R-α-methylhistamine (8.8 Ci/mmol) or [³H]-N-methylhistamine (80 Ci/mmol) and incubated at 30° for 30 min. Bound ligand was separated from unbound ligand by filtration, and the amount of radioactive ligand bound to the membranes was quantitiated by liquid scintillation spectrometry.

Experiment [2] concerns the target H₃ receptors in rat brain (Rattus norvegicus, UniProt Q9QYN8). The following applies: complete agonists of the H₃ receptors; cited from earlier work.

Molecules are shown by their SMILES.

T1 sequence (Q9JI35 whole entry): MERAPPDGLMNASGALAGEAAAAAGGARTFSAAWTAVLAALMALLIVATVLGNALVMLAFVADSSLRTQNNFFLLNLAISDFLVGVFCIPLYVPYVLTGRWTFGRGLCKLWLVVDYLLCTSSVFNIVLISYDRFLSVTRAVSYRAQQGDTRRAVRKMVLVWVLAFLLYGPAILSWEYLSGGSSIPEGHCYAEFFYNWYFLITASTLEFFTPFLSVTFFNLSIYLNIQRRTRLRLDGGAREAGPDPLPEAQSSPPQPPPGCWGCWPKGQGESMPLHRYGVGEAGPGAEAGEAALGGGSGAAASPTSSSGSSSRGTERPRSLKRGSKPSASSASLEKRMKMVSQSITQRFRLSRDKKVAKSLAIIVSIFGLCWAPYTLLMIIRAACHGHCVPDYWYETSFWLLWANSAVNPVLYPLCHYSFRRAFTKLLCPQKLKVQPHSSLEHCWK
H₃ receptors in rat brain, sequence (Q9QYN8 whole entry): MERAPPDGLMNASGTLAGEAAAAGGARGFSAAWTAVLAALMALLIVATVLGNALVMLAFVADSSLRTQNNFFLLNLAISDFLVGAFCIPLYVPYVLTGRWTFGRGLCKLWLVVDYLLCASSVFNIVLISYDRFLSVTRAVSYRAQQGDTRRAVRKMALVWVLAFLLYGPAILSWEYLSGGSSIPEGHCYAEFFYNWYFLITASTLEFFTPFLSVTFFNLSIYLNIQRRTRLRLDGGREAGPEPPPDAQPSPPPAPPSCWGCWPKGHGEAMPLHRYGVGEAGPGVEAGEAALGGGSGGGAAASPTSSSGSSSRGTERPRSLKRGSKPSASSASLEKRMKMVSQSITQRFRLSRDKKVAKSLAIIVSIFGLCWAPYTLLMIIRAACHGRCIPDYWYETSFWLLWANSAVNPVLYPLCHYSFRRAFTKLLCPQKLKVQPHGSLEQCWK

On to `c1nc(CN2CCNCC2)c[nH]1`, for which, in experiment [1], the Ki stood at 0.0047 µM.
`CC1CN(Cc2c[nH]cn2)C(C)CN1` (stereo not drawn): the “H3 Binding (inhibition of the specific binding of radioactive ligand)” value in experiment [1] amounted to 6%.
Regarding `C[C@@H]1CN(Cc2c[nH]cn2)C[C@H](C)N1`, the “H3 Binding (inhibition of the specific binding of radioactive ligand)” value in experiment [1] is reported as 24%.
`c1nc(CN2CCCNCC2)c[nH]1` registered a Ki in experiment [1] of 0.087 µM.
As for `NCCc1c[nH]cn1` [(a*), reference compound], the Ki in experiment [1] stood at 0.014 µM.
For the compound `NCCc1c[nH]cn1` [histamine], the “maximal inhibition of release” value in experiment [2] was “approximately 60%”.

The Ki is a measure of affinity in units of concentration, obtained from inhibition or displacement. A lower Ki goes with tighter binding.
